{"source": "patent US20020092037A1", "about": "“Use of membrane supports in plant tissue culture processes” (priority 2000, published 2002)", "key": {"[1]": {"tested_on": "P. taeda embryogenic cell lines", "experiment": "Embryo development and germination with abscisic acid applied in a liquid phase under polyester membranes", "assay_type": "cell-based, Pinus taeda", "method": "Loblolly pine embryogenic cell cultures were initiated, proliferated, cryopreserved, retrieved, further proliferated on gelled maintenance medium, and placed into liquid suspension for plating on embryo development medium MSG1 as described in Examples 3-4 above. Three replicate plates of each line were prepared for each of the following treatments:\nTreatment B: the cells were plated onto polyester support membranes laid onto 1 ml liquid embryo development medium MSG1 containing PEG but lacking gelling agent and activated charcoal, pipetted over gelled embryo development medium MSG1\nTreatment C: the cells were plated onto polyester support membranes laid onto 1 ml liquid embryo development medium MSG1 containing PEG but lacking gelling agent and activated charcoal, pipetted over gelled embryo development medium MSG1 lacking abscisic acid.\nEmbryos were developed, harvested and germinated as described in Example 4 above. The results of the counts of high quality cotyledonary stage embryos, and the germination tests with these embryos, are shown in Table 20 below.\nIn another experiment, an attempt had been made to decrease the osmotic potential of the liquid phase in order to facilitate filter sterilization."}, "[2]": {"tested_on": "P. taeda embryogenic cell lines", "experiment": "Embryo development and germination with abscisic acid applied in a liquid phase under polyester membranes", "assay_type": "cell-based, Pinus taeda", "remark": "listed apart in the source"}, "[3]": {"tested_on": "unknown fungus on Eucalyptus camaldulensis leaf explants", "experiment": "Decontamination of Eucalyptus leaf explants of fungus", "assay_type": "cell-based", "text": "Eucalyptus camaldulensis leaves were explanted from seedlings for the production of callus, and then discovered to be contaminated with an unknown fungus. Contaminated explants were shaken together to obtain the same degree of contamination for all explants to be used in this decontamination example. Contamination of each explant with the fungus was verified by streaking the explant on a potato dextrose agar plate, and observing independent growth of the fungus on the potato dextrose agar.\nApproximately half the Eucalyptus leaf explants were then treated to decontamination by washing and collection of the tissue using polyester support membranes after each wash, similar to the improved decontamination method described in Example 6, split among five treatments:\nFollowing the washing of half the material according to the protocol described in […] in the treatments described in the paragraph above, using three washes of 30 minutes each, the washed and non-washed material was then divided over the same support membrane treatments A-F as described in Example 8, except that nested within each support membrane treatment was the prior washing or lack of washing treatment, and within each of these latter treatments, the five fungicidal treatments listed above were further nested, wherein the antifungal agents benomyl, miconazole, nystatin or thiophanate were added to the medium subtending the tissue and supports in place of cefotaxime. Finally, non-contaminated explants were submitted to all treatments to determine the effects of the treatments on plant regeneration in the absence of fungus. Five explants were plated for each treatment combination.\nThe explants were then cultured in a growth chamber set at 27±3° C. and under low light, and were transferred biweekly using the same support membranes but supplying fresh sterile liquid and solid medium."}, "[4]": {"tested_on": "Hybrid pine embryogenic cell lines", "experiment": "Embryogenicity after biphasic maintenance treatments, hybrid pine", "assay_type": "cell-based", "settings": "for % germination: embryos from cultures maintained over eradicant liquid phase; for Average Number Of Embryos Harvested Per Plate: eradicant in liquid phase during maintenance, cefotaxime 500 mg/L, TIMENTIN 400 mg/L"}, "[5]": {"tested_on": "P. taeda embryogenic cell lines", "experiment": "Embryogenicity after biphasic maintenance treatments, P. taeda", "assay_type": "cell-based, Pinus taeda", "settings": "for % germination: embryos from cultures maintained over eradicant liquid phase; for Average Number Of Embryos Harvested Per Plate: eradicant in liquid phase during maintenance, cefotaxime 500 mg/L, TIMENTIN 400 mg/L", "text": "(§1) Loblolly pine cell lines were used which had been grown and maintained as described in Examples 3-4 above, and purposely infected with bacteria as described in Example 6 above. Support membranes bearing plant tissue were then placed on gelled DCR2 maintenance media with various decontamination treatments. These treatments consisted of antibiotics (cefotaxime, carbenicillin, AUGMENTIN® or TIMENTIN®) as eradicants incorporated into the gelled DCR2 maintenance or selection media, the antibiotics incorporated into liquid DCR3 pipetted in a thin film over gelled DCR2 maintenance media lacking antibiotics, or the antibiotics incorporated into liquid DCR3 which was saturated into a filter paper laid on gelled DCR2 maintenance media lacking antibiotics. Support membranes bearing control cells were placed either on gelled DCR2 maintenance media, over liquid DCR3 pipetted in a thin film over gelled DCR2 maintenance media lacking antibiotics, or over a filter paper saturated with liquid DCR3 and laid on gelled DCR2 maintenance media lacking antibiotics. Decontamination and maintenance were continued for a period of approximately 12 weeks with transfer of the polyester support membranes, bearing the cells, every 14-21 days."}, "[6]": {"tested_on": "Hybrid pine embryogenic cell lines", "experiment": "Embryo development over eradicants in liquid phase of biphasic development and maturation media, hybrid pine", "assay_type": "cell-based", "settings": "eradicant in liquid phase of development/maturation media, cefotaxime 500 mg/L, TIMENTIN 400 mg/L", "text": "Agrobacterium contamination has been reported as recurring sometimes after long periods of time. With many species, eradicants are incorporated in all culture media used after the initial infection, including selection media, proliferation media, media to induce the formation of organs or the development of somatic embryos, media to elongate or mature organs or embryos that are formed, and regeneration media. For pine embryogenic cells, incorporation of eradicants into the embryo development and maturation media has been difficult due to the high temperature of polymerization of the media resulting from the incorporation of a high level of polyethylene glycol. […] Three replicate plates were generated from each of six embryogenic cell lines (two from each of two P. taeda families and one hybrid pine family) for each of the treatments, and assessed for the ability of the cultures to develop high quality harvestable stage 3 embryos. […] At week 9, stage 3 embryos were counted and those deemed suitable for germination were harvested."}, "[7]": {"tested_on": "P. taeda embryogenic cell lines", "experiment": "Growth of pine embryogenic cells on polyester supports over biphasic media with eradicants, P. taeda", "assay_type": "cell-based, Pinus taeda", "settings": "liquid phase under polyester support, cefotaxime 500 mg/L, TIMENTIN 400 mg/L", "text": "as §1"}, "[8]": {"tested_on": "P. taeda embryogenic cell lines", "experiment": "Embryo development over eradicants in liquid phase of biphasic development and maturation media, P. taeda", "assay_type": "cell-based, Pinus taeda", "settings": "eradicant in liquid phase of development/maturation media, cefotaxime 500 mg/L, TIMENTIN 400 mg/L", "text": "Agrobacterium contamination has been reported as recurring sometimes after long periods of time. With many species, eradicants are incorporated in all culture media used after the initial infection, including selection media, proliferation media, media to induce the formation of organs or the development of somatic embryos, media to elongate or mature organs or embryos that are formed, and regeneration media. For pine embryogenic cells, incorporation of eradicants into the embryo development and maturation media has been difficult due to the high temperature of polymerization of the media resulting from the incorporation of a high level of polyethylene glycol. Therefore, loblolly and hybrid pine cell lines grown and maintained as described in Examples 3-4 above were placed on polyester support membranes over gelled MSG1 embryo development and maturation media as described in Example 4 above, except that some of the development and maturation media were overlaid with various eradication treatments under the polyester support membranes. The treatments consisted of either no liquid phase, or a liquid phase identical to the gelled phase (except that gelling agent and activated charcoal were omitted) and incorporating either cefotaxime or TIMENTIN® as an eradicant. Three replicate plates were generated from each of […] (two from each of two P. taeda families and one hybrid pine family) for each of the treatments, and assessed for the ability of the cultures to develop high quality harvestable stage 3 embryos. Dishes were incubated in a dark growth chamber at 23±2° C. The membrane supports were transferred to new petri dishes containing fresh medium every 3 weeks. At week 9, stage 3 embryos were counted and those deemed suitable for germination were harvested."}, "[9]": {"tested_on": "Hybrid pine embryogenic cell lines", "experiment": "Growth of pine embryogenic cells on polyester supports over biphasic media with eradicants, hybrid pine", "assay_type": "cell-based", "settings": "liquid phase under polyester support, cefotaxime 500 mg/L, TIMENTIN 400 mg/L"}, "[10]": {"settings": "P1, gelled phase lacking abscisic acid and liquid phase containing abscisic acid"}, "[11]": {"settings": "P1, liquid phase with same abscisic acid content as gelled phase"}, "[12]": {"settings": "P2, gelled phase lacking abscisic acid and liquid phase containing abscisic acid"}, "[13]": {"settings": "P2, liquid phase with same abscisic acid content as gelled phase"}}, "data": [{"smiles": "CC1=CC(=O)CC(C)(C)[C@@]1(O)/C=C/C(C)=C\\C(=O)O", "note": "[Abscisic Acid, Abscisic acid]", "values": [{"measurement": "Average Number Of High Quality Cotyledonary Embryos Per Plate", "setting": "[1]; [10]", "result": "30.3 ± 7.1"}, {"measurement": "Percentage Of Resulting Embryos That Germinated", "setting": "[1]; [10]", "result": 52.5, "unit": "%"}, {"measurement": "Average Number Of High Quality Cotyledonary Embryos Per Plate", "setting": "[1]; [11]", "result": "44.3 ± 21.1"}, {"measurement": "Average Number Of High Quality Cotyledonary Embryos Per Plate", "setting": "[1]; [12]", "result": "48.7 ± 5.0"}, {"measurement": "Percentage Of Resulting Embryos That Germinated", "setting": "[1]; [12]", "result": 57.5, "unit": "%"}, {"measurement": "Average Number Of High Quality Cotyledonary Embryos Per Plate", "setting": "[1]; [13]", "result": "44.3 ± 4.9"}, {"measurement": "Percentage Of Resulting Embryos That Germinated", "setting": "[1]; [13]", "result": 67.5, "unit": "%"}, {"measurement": "decrease in embryos per plate", "setting": "[1]; abscisic acid in liquid phase only, overall use of 5% of the amount", "result": "30-60%"}, {"measurement": "Average Number Of High Quality Cotyledonary Embryos Per Plate", "setting": "[2]; L5, Liquid Phase containing ABA and PEG", "result": "26.3 ± 45.6"}, {"measurement": "Average Number Of High Quality Cotyledonary Embryos Per Plate", "setting": "[2]; L5, Liquid Phase containing ABA but no PEG", "result": "201.0 ± 44.5"}, {"measurement": "Average Number Of High Quality Cotyledonary Embryos Per Plate", "setting": "[2]; L9, Liquid Phase containing ABA and PEG", "result": "64.0 ± 23.6"}, {"measurement": "Average Number Of High Quality Cotyledonary Embryos Per Plate", "setting": "[2]; L9, Liquid Phase containing ABA but no PEG", "result": "97.0 ± 20.7"}, {"measurement": "Average Number Of High Quality Cotyledonary Embryos Per Plate", "setting": "[2]; L42, Liquid Phase containing ABA and PEG", "result": 0}, {"measurement": "Average Number Of High Quality Cotyledonary Embryos Per Plate", "setting": "[2]; L42, Liquid Phase containing ABA but no PEG", "result": 0}, {"measurement": "Percentage Of Resulting Embryos That Germinated", "setting": "[2]; [11]", "result": 55.0, "unit": "%"}]}, {"smiles": "CCCCNC(=O)n1c(NC(=O)OC)nc2ccccc21", "note": "[benomyl, Benomyl]", "values": [{"measurement": "phenolic release into the medium from plant tissue", "setting": "[3]; also from successfully decontaminated plant tissue", "result": "elicited considerable phenolic release into the medium"}, {"measurement": "decontamination", "setting": "[3]; in the washing (100 mg/L) and incorporated into the medium below the polyester supports", "result": "largely ineffective in decontamination"}]}, {"smiles": "CO/N=C(\\C(=O)N[C@@H]1C(=O)N2C(C(=O)O)=C(COC(C)=O)CS[C@H]12)c1csc(N)n1", "note": "[cefotaxime]", "values": [{"measurement": "% germination", "setting": "[4]; H1", "result": "(96%)"}, {"measurement": "Average Number Of Embryos Harvested Per Plate", "setting": "[4]; H1", "result": "152.0 ± 40.8"}, {"measurement": "% germination", "setting": "[4]; H2", "result": "(88%)"}, {"measurement": "Average Number Of Embryos Harvested Per Plate", "setting": "[4]; H2", "result": "77.0 ± 10.4"}, {"measurement": "% germination", "setting": "[5]; P1", "result": "(10%)"}, {"measurement": "Average Number Of Embryos Harvested Per Plate", "setting": "[5]; P1", "result": "87.0 ± 37.5"}, {"measurement": "% germination", "setting": "[5]; P2", "result": "(66%)"}, {"measurement": "Average Number Of Embryos Harvested Per Plate", "setting": "[5]; P2", "result": "81.7 ± 44.5"}, {"measurement": "% germination", "setting": "[5]; P3", "result": "(21%)"}, {"measurement": "Average Number Of Embryos Harvested Per Plate", "setting": "[5]; P3", "result": "14.3 ± 4.2"}, {"measurement": "% germination", "setting": "[5]; P4", "result": "(36%)"}, {"measurement": "Average Number Of Embryos Harvested Per Plate", "setting": "[5]; P4", "result": "34.0 ± 16.1"}, {"measurement": "Number of Harvestable Cotyledonary Stage Embryos Developed", "setting": "[6]; H1", "result": "200.0 ± 51.2"}, {"measurement": "Number of Harvestable Cotyledonary Stage Embryos Developed", "setting": "[6]; H2", "result": "210.0 ± 67.1"}, {"measurement": "Average growth over a one-month period (two transfers)", "setting": "[7]; P1", "result": "7.20 + 0.28"}, {"measurement": "Average growth over a one-month period (two transfers)", "setting": "[7]; P2", "result": "1.93 + 0.24"}, {"measurement": "Average growth over a one-month period (two transfers)", "setting": "[7]; P3", "result": "6.75 + 0.25"}, {"measurement": "Average growth over a one-month period (two transfers)", "setting": "[7]; P4", "result": "8.97 + 0.19"}, {"measurement": "Number of Harvestable Cotyledonary Stage Embryos Developed", "setting": "[8]; P1", "result": "208.0 ± 94.8"}, {"measurement": "Number of Harvestable Cotyledonary Stage Embryos Developed", "setting": "[8]; P2", "result": "269.0 ± 23.3"}, {"measurement": "Number of Harvestable Cotyledonary Stage Embryos Developed", "setting": "[8]; P3", "result": "25.0 ± 17.7"}, {"measurement": "Number of Harvestable Cotyledonary Stage Embryos Developed", "setting": "[8]; P4", "result": "18.0 ± 1.0"}, {"measurement": "Average growth over a one-month period (two transfers)", "setting": "[9]; H1", "result": "4.53 + 0.28"}, {"measurement": "Average growth over a one-month period (two transfers)", "setting": "[9]; H2", "result": "8.76 + 0.63"}]}, {"smiles": "Clc1ccc(COC(Cn2ccnc2)c2ccc(Cl)cc2Cl)c(Cl)c1", "note": "(stereo not shown) [miconazole, Miconazole]", "values": [{"measurement": "contaminated explants in which decontamination did not succeed", "setting": "[3]; contaminated Eucalyptus explants", "result": 7.5, "unit": "%"}, {"measurement": "decontamination rate", "setting": "[3]; contaminated Eucalyptus explants, 50 mg/L in wash medium", "result": 92.5, "unit": "%"}]}]}
